Measured values published in patent US9522886B2, “Pyridine derivatives” (Hoffmann-La Roche Inc., priority 2012, dated 2016).
Structures can show the parent of a compound that is named as a salt. Where two headings read alike, the source gives them in different places.

Legend:
human CB2 receptors = human CB2 receptors (Homo sapiens (Human), UniProt P34972); test: cAMP assay, CHO cells expressing human CB2 receptors; format: cell-based
human CB1 receptors = human CB1 receptors (Homo sapiens (Human), UniProt P21554); test: cAMP assay, CHO cells expressing human CB1 receptors; format: cell-based
[1] = functional cAMP assay, CHO cells expressing human CB2, read-out: human CB2 EC50
[2] = functional cAMP assay, CHO cells expressing human CB1, read-out: human CB1 EC50

human CB1 receptors, sequence (P21554 whole entry): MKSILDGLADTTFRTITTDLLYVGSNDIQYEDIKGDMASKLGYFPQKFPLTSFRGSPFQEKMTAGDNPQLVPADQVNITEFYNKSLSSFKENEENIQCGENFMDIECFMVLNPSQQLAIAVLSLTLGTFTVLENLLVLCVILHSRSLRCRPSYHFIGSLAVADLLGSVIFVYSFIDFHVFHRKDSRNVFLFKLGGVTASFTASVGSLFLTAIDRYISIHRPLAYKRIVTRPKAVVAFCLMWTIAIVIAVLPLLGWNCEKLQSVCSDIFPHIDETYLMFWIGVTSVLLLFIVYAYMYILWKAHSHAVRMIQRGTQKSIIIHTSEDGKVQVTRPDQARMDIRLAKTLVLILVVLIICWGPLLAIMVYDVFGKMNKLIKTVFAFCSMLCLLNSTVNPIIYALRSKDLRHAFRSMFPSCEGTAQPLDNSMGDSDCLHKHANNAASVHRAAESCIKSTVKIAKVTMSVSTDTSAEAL
human CB2 receptors, sequence (P34972 whole entry): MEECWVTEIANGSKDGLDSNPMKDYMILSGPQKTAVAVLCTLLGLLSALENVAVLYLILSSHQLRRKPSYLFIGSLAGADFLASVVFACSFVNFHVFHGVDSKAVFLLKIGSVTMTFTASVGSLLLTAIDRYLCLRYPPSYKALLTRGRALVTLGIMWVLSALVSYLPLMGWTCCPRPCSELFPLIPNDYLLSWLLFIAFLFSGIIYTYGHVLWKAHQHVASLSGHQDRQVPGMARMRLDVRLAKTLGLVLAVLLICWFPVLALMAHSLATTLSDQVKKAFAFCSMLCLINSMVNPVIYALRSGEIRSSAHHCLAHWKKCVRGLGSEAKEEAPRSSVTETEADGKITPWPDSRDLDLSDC

| SMILES | EC50 (human CB2 receptors; [1]) [nM] | EC50 (human CB1 receptors; [2]) [nM] | EC50 (human CB2 receptors) [nM] | EC50 (human CB1 receptors) [nM] |
| --- | --- | --- | --- | --- |
| NC(=O)CC1(NC(=O)c2ccc(N3CC(F)(F)C3)c(OCC3CC3)n2)CS(=O)(=O)C1 [Example 61, 6-Cyclopropylmethoxy-5-(3,3-difluoro-azetidin-1-yl)-pyridine-2-carboxylic acid (3-carbamoylmethyl-1,1-dioxo-1λ6-thietan-3-yl)-amide] | 1 | 7750 |  |  |
| NC(=O)CC1(NC(=O)c2ccc(N3CC(F)(F)C3)c(OCC3CC3)n2)CCSCC1 [Example 62, 6-Cyclopropylmethoxy-5-(3,3-difluoro-azetidin-1-yl)-pyridine-2-carboxylic acid (4-carbamoylmethyl-tetrahydro-thiopyran-4-yl)-amide] | 2.5 | > 10000 |  |  |
| NC(=O)CC1(NC(=O)c2ccc(N3CC(F)(F)C3)c(OCC3CC3)n2)CCS(=O)(=O)CC1 [Example 63, N-[4-(2-Amino-2-oxoethyl)-1,1-dioxothian-4-yl]-6-(cyclopropylmethoxy)-5-(3,3-difluoroazetidin-1-yl)pyridine-2-carboxamide] | 55.5 | > 10000 |  |  |
| NC(=O)CC(NC(=O)c1ccc(C2CC2)c(OCC2CC2)n1)C1CCOC1 (centres unmarked) [Example 64, N-[3-Amino-3-oxo-1-(oxolan-3-yl)propyl]-5-cyclopropyl-6-(cyclopropylmethoxy)pyridine-2-carboxamide] | 5.2 | > 10000 |  |  |
| NC(=O)CC1(NC(=O)c2ccc(N3CC(F)(F)C3)c(OCC3CC3)n2)CNC1 [Example 65, N-[3-(2-Amino-2-oxoethyl)azetidin-3-yl]-6-(cyclopropylmethoxy)-5-(3,3-difluoroazetidin-1-yl)pyridine-2-carboxamide] | 443 | > 10000 |  |  |
| NC(=O)CC1(NC(=O)c2ccc(C3CC3)c(Cc3ccc(F)cc3)n2)CCNCC1 [Example 66, N-[4-(2-Amino-2-oxoethyl)piperidin-4-yl]-5-cyclopropyl-6-[(4-fluorophenyl)methyl]pyridine-2-carboxamide; hydrochloride] | 1.3 | > 10000 |  |  |
| NC(=O)CC(NC(=O)c1ccc(N2CC(F)(F)C2)c(OCC2CC2)n1)C1CCOC1 (centres unmarked) [Example 67, N-[3-Amino-3-oxo-1-(oxolan-3-yl)propyl]-6-(cyclopropylmethoxy)-5-(3,3-difluoroazetidin-1-yl)pyridine-2-carboxamide] | 8.3 | > 10000 |  |  |
| COC(=O)CC1(NC(=O)c2ccc(N3CC(F)(F)C3)c(OCC3CC3)n2)CCC1 [Example 68, Methyl 2-[1-[[6-(cyclopropylmethoxy)-5-(3,3-difluoroazetidin-1-yl)pyridine-2-carbonyl]amino]cyclobutyl]acetate] | 1.1 | > 10000 |  |  |
| O=C(O)CC1(NC(=O)c2ccc(N3CC(F)(F)C3)c(OCC3CC3)n2)CCC1 [Example 69, 2-[1-[[6-(Cyclopropylmethoxy)-5-(3,3-difluoroazetidin-1-yl)pyridine-2-carbonyl]amino]cyclobutyl]acetic acid] | 302 | > 10000 |  |  |
| NC(=O)CC1(NC(=O)c2ccc(N3CC(F)(F)C3)c(OCC3CC3)n2)CCC1 [Example 70, N-[1-(2-Amino-2-oxoethyl)cyclobutyl]-6-(cyclopropylmethoxy)-5-(3,3-difluoroazetidin-1-yl)pyridine-2-carboxamide] | 0.6 | > 10000 |  |  |
| CCOC(=O)C1(CNC(=O)c2ccc(N3CC(F)(F)C3)c(OCC3CC3)n2)CC1 [Example 71, Ethyl 1-[[[6-(cyclopropylmethoxy)-5-(3,3-difluoroazetidin-1-yl)pyridine-2-carbonyl]amino]methyl]cyclopropane-1-carboxylate] | 60.6 | > 10000 |  |  |
| CC(=O)N1CCC(CC(N)=O)(NC(=O)c2ccc(C3CC3)c(Cc3ccc(F)cc3)n2)CC1 [Example 72, N-[1-Acetyl-4-(2-amino-2-oxoethyl)piperidin-4-yl]-5-cyclopropyl-6-[(4-fluorophenyl)methyl]pyridine-2-carboxamide] | 5 | > 10000 |  |  |
| CC(=O)N1CC(CC(N)=O)(NC(=O)c2ccc(N3CC(F)(F)C3)c(OCC3CC3)n2)C1 [Example 73, N-[1-Acetyl-3-(2-amino-2-oxoethyl)azetidin-3-yl]-6-(cyclopropylmethoxy)-5-(3,3-difluoroazetidin-1-yl)pyridine-2-carboxamide] | 120 | > 10000 |  |  |
| NC(=O)CC1(NC(=O)c2ccc(C3CC3)c(Cc3ccc(F)cc3)n2)CN(C(=O)OCc2ccccc2)C1 [Example 74, Benzyl 3-(2-amino-2-oxoethyl)-3-[[5-cyclopropyl-6-[(4-fluorophenyl)methyl]pyridine-2-carbonyl]amino]azetidine-1-carboxylate] | 39 | > 10000 |  |  |
| CC(C)CSc1nc(C(=O)NC2(CC(N)=O)CS(=O)(=O)C2)ccc1C1CC1 [Example 75, N-[3-(2-Amino-2-oxoethyl)-1,1-dioxothietan-3-yl]-5-cyclopropyl-6-(2-methylpropylsulfanyl)pyridine-2-carboxamide] | 15.8 | > 10000 |  |  |
| NC(=O)CC1(NC(=O)c2ccc(C3CC3)c(OCC3CC3)n2)CS(=O)(=O)C1 [Example 77, N-[3-(2-Amino-2-oxoethyl)-1,1-dioxothietan-3-yl]-5-cyclopropyl-6-(cyclopropylmethoxy)pyridine-2-carboxamide] | 0.7 | > 10000 |  |  |

| SMILES | EC50 (human CB2 receptors; [1]) [nM] | EC50 (human CB1 receptors; [2]) [nM] | EC50 (human CB2 receptors) [nM] | EC50 (human CB1 receptors) [nM] |
| --- | --- | --- | --- | --- |
| NC(=O)CC1(NC(=O)c2ccc(C(F)(F)F)c(OCC3CCOCC3)n2)CS(=O)(=O)C1 [Example 78, N-[3-(2-Amino-2-oxoethyl)-1,1-dioxothietan-3-yl]-6-(oxan-4-ylmethoxy)-5-(trifluoromethyl)pyridine-2-carboxamide] | 41 | > 10000 |  |  |
| NC(=O)CC1(NC(=O)c2cccc(-c3ccc(F)c(Cl)c3)n2)CS(=O)(=O)C1 [Example 79, N-[3-(2-Amino-2-oxoethyl)-1,1-dioxothietan-3-yl]-6-(3-chloro-4-fluorophenyl)pyridine-2-carboxamide] | 74.7 | > 10000 |  |  |
| NC(=O)CC1(NC(=O)c2ccc(C3CC3)c(OCC3CCCO3)n2)CS(=O)(=O)C1 (centres unmarked) [Example 80, N-[3-(2-Amino-2-oxoethyl)-1,1-dioxothietan-3-yl]-5-cyclopropyl-6-(oxolan-2-ylmethoxy)pyridine-2-carboxamide] | 2.4 | > 10000 |  |  |
| NC(=O)CC1(NC(=O)c2ccc(C3CC3)c(Cc3ccc(F)cc3)n2)CNC1 [Example 81, N-[3-(2-Amino-2-oxoethyl)azetidin-3-yl]-5-cyclopropyl-6-[(4-fluorophenyl)methyl]pyridine-2-carboxamide] |  |  | 15 | > 10000 |
| NC(=O)CC1(NC(=O)c2ccc(N3CC(F)(F)C3)c(OCC3CC3)n2)CCOC1 (centres unmarked) [Example 82, N-[3-(2-Amino-2-oxoethyl)oxolan-3-yl]-6-(cyclopropylmethoxy)-5-(3,3-difluoroazetidin-1-yl)pyridine-2-carboxamide] | 1.5 | > 10000 |  |  |
| NC(=O)CC1(NC(=O)c2ccc(N3CC(F)(F)C3)c(OCC3CC3)n2)CCN(C(=O)OCc2ccccc2)C1 (centres unmarked) [Example 83, Benzyl 3-(2-amino-2-oxoethyl)-3-[[6-(cyclopropylmethoxy)-5-(3,3-difluoroazetidin-1-yl)pyridine-2-carbonyl]amino]pyrrolidine-1-carboxylate] | 1330 | > 10000 |  |  |
| NC(=O)CC1(NC(=O)c2ccc(N3CC(F)(F)C3)c(OCC3CC3)n2)CCNC1 (centres unmarked) [Example 84, N-[3-(2-Amino-2-oxoethyl)pyrrolidin-3-yl]-6-(cyclopropylmethoxy)-5-(3,3-difluoroazetidin-1-yl)pyridine-2-carboxamide] | 67.6 | > 10000 |  |  |
| NC(=O)CC1(NC(=O)c2ccc(N3CC(F)(F)C3)c(OCC3CC3)n2)CCNCC1 [Example 85, N-[4-(2-Amino-2-oxoethyl)piperidin-4-yl]-6-(cyclopropylmethoxy)-5-(3,3-difluoroazetidin-1-yl)pyridine-2-carboxamide] | 270 | > 10000 |  |  |
| NC(=O)CC1(NC(=O)c2ccc(C3CC3)c(OCC3CC3)n2)CCNCC1 [Example 86, N-[4-(2-Amino-2-oxoethyl)piperidin-4-yl]-5-cyclopropyl-6-(cyclopropylmethoxy)pyridine-2-carboxamide] | 240 | > 10000 |  |  |
| NC(=O)CC1(NC(=O)c2ccc(C3CC3)c(Cc3ccc(F)cc3)n2)CCOC1 (centres unmarked) [Example 87, N-[3-(2-Amino-2-oxoethyl)oxolan-3-yl]-5-cyclopropyl-6-[(4-fluorophenyl)methyl]pyridine-2-carboxamide] |  |  | 0.3 | 34.8 |
| NC(=O)CC1(NC(=O)c2ccc(C3CC3)c(OCC3CC3)n2)CCOC1 (centres unmarked) [Example 88, N-[3-(2-Amino-2-oxoethyl)oxolan-3-yl]-5-cyclopropyl-6-(cyclopropylmethoxy)pyridine-2-carboxamide] | 2 | > 10000 |  |  |
| NC(=O)CC1(NC(=O)c2ccc(C3(F)CCC3)c(OCC3CC3)n2)COC1 [Example 89, N-[3-(2-Amino-2-oxoethyl)oxetan-3-yl]-6-(cyclopropylmethoxy)-5-(1-fluorocyclobutyl)pyridine-2-carboxamide] | 11.9 | > 10000 |  |  |
| NC(=O)CC1(NC(=O)c2ccc(C3(O)CCC3)c(OCC3CC3)n2)COC1 [Example 90, N-[3-(2-Amino-2-oxoethyl)oxetan-3-yl]-6-(cyclopropylmethoxy)-5-(1-hydroxycyclobutyl)pyridine-2-carboxamide] | 8.8 | > 10000 |  |  |
| NC(=O)CC1(NC(=O)c2ccc(C3(O)CCC3)c(OCC3CC3)n2)CS(=O)(=O)C1 [Example 92, N-[3-(2-Amino-2-oxoethyl)-1,1-dioxothietan-3-yl]-6-(cyclopropylmethoxy)-5-(1-hydroxycyclobutyl)pyridine-2-carboxamide] | 2.2 | > 10000 |  |  |
| NC(=O)CC1(NC(=O)c2ccc(C3(F)COC3)c(OCC3CC3)n2)COC1 [Example 93, N-[3-(2-Amino-2-oxoethyl)oxetan-3-yl]-6-(cyclopropylmethoxy)-5-(3-fluorooxetan-3-yl)pyridine-2-carboxamide] | 14.9 | > 10000 |  |  |
